Assay results: PubChem BioAssay (NCI)
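Growth conditions: 96-well plates. Treatment: test compound, 48 hours, 5 concentrations. Analysis: linear interpolation between bracketing concentrations; unreached endpoints set to highest concentration. The concentration for 50% growth inhibition is given as GI50. TGI marks complete inhibition of growth.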

What was measured:
Test in all cases: growth of human tumour cells (NCI), 48 h
[1] = system: HCT-15 colon
[2] = system: UACC-62 melanoma
[3] = system: M14 melanoma
[4] = system: SN12C renal
[5] = system: HOP-62 NSCLC
[6] = system: NCI-H460 lung
[7] = system: UACC-257 melanoma
[8] = system: ACHN renal
[9] = system: HL-60(TB) leukemia
[10] = system: SR leukemia
[11] = system: BT-549 breast
[12] = system: MDA-N
[13] = system: OVCAR-8 ovarian
[14] = system: MCF7 breast
[15] = system: K-562 leukemia
[16] = system: OVCAR-4 ovarian
[17] = system: DU-145 prostate
[18] = system: SK-MEL-5 melanoma
[19] = system: NCI/ADR-RES ovarian
[20] = system: A498 renal
[21] = system: PC-3 prostate
[22] = system: SNB-75 CNS
[23] = system: NCI-H23 lung
[24] = system: HOP-92 NSCLC
[25] = system: EKVX NSCLC
[26] = system: SW-620 colon
[27] = system: A549 NSCLC
[28] = system: COLO 205 colon
[29] = system: SK-OV-3 ovarian
[30] = system: CCRF-CEM leukemia
[31] = system: UO-31 renal
[32] = system: RPMI-8226 leukemia
[33] = system: SNB-19 CNS
[34] = system: OVCAR-5 ovarian
[35] = system: MDA-MB-435
[36] = system: HT29 colon
[37] = system: T-47D breast
[38] = system: LOX IMVI melanoma
[39] = system: IGROV1 ovarian
[40] = system: OVCAR-3 ovarian
[41] = system: MALME-3M melanoma
[42] = system: TK-10 renal
[43] = system: MDA-MB-231 breast
[44] = system: SF-295 CNS
[45] = system: 786-0 renal
[46] = system: U251 CNS
[47] = system: HCC-2998 colon
[48] = system: NCI-H226 lung
[49] = system: MOLT-4 leukemia
[50] = system: SK-MEL-28 melanoma
[51] = system: SF-268 CNS
[52] = system: HCT-116 colon
[53] = system: SK-MEL-2 melanoma
[54] = system: HS 578T breast
[55] = system: CAKI-1 renal
[56] = system: KM12 colon
[57] = system: SF-539 CNS
[58] = system: NCI-H522 lung
[59] = system: RXF 393 renal

CN(C)CCN(C)P12(Oc3ccccc3O1)Oc1c(Cl)c(Cl)c(Cl)c(Cl)c1O2
TGI [1]: > 100 µM | TGI [2]: > 100 µM | TGI [3]: > 100 µM | TGI [4]: > 100 µM | TGI [5]: > 100 µM | TGI [6]: > 100 µM | TGI [7]: 85.5 µM | TGI [8]: > 100 µM | TGI [9]: 40.9 µM | TGI [10]: > 100 µM | TGI [11]: > 100 µM | TGI [12]: > 100 µM | TGI [13]: > 100 µM | TGI [14]: > 100 µM | TGI [15]: > 100 µM | TGI [16]: > 100 µM | TGI [17]: > 100 µM | TGI [18]: > 100 µM | TGI [19]: > 100 µM | TGI [20]: > 100 µM | TGI [21]: > 100 µM | TGI [22]: 82 µM | TGI [23]: > 100 µM | TGI [24]: 92.7 µM | TGI [25]: > 100 µM | TGI [26]: > 100 µM | TGI [27]: > 100 µM | TGI [28]: > 100 µM | TGI [29]: > 100 µM | TGI [30]: 92.2 µM | TGI [31]: > 100 µM | TGI [32]: > 100 µM | TGI [33]: > 100 µM | TGI [34]: > 100 µM | TGI [35]: > 100 µM | TGI [36]: > 100 µM | TGI [37]: > 100 µM | TGI [38]: > 100 µM | TGI [39]: > 100 µM | TGI [40]: > 100 µM | TGI [41]: > 100 µM | TGI [42]: > 100 µM | TGI [43]: > 100 µM | TGI [44]: > 100 µM | TGI [45]: > 100 µM | TGI [46]: > 100 µM | TGI [47]: > 100 µM | TGI [48]: > 100 µM | TGI [49]: > 100 µM | TGI [50]: > 100 µM | TGI [51]: > 100 µM | TGI [52]: > 100 µM

c1ccc(-c2oc(-c3ccccc3)c(CN3CCCCC3)c2CN2CCCCC2)cc1
GI50 [53]: 3.72 µM | TGI [53]: 15.7 µM | GI50 [1]: 1.79 µM | TGI [1]: 10.3 µM | GI50 [2]: 1.79 µM | TGI [2]: 4.35 µM | GI50 [3]: 1.83 µM | TGI [3]: 4.25 µM | GI50 [4]: 2.84 µM | TGI [4]: 12.4 µM | GI50 [5]: 4.69 µM | TGI [5]: 21.8 µM | GI50 [6]: 3.25 µM | TGI [6]: 14.2 µM | GI50 [54]: 3.14 µM | TGI [54]: 15.8 µM | GI50 [7]: 3 µM | TGI [7]: 8.08 µM | GI50 [8]: 2.54 µM | TGI [8]: 10.2 µM | GI50 [9]: 1.96 µM | TGI [9]: 5.28 µM | GI50 [10]: 2.52 µM | TGI [10]: 6.06 µM | GI50 [11]: 3.35 µM | TGI [11]: 13.3 µM | GI50 [13]: 3.91 µM | TGI [13]: 17.1 µM | GI50 [14]: 1.66 µM | TGI [14]: 6.15 µM | GI50 [15]: 1.94 µM | TGI [15]: 6.51 µM | GI50 [16]: 2.65 µM | TGI [16]: 13.6 µM | GI50 [17]: 7.72 µM | TGI [17]: 21.6 µM | GI50 [18]: 1.59 µM | TGI [18]: 3.08 µM | GI50 [19]: 4.17 µM | TGI [19]: 15.9 µM | GI50 [20]: 2.41 µM | TGI [20]: 11.8 µM | GI50 [21]: 2.34 µM | TGI [21]: 7.73 µM | GI50 [22]: 4.13 µM | TGI [22]: 18.6 µM | GI50 [23]: 3.21 µM | TGI [23]: 13 µM | GI50 [24]: 1.48 µM | TGI [24]: 5.89 µM | GI50 [25]: 2.99 µM | TGI [25]: 14.2 µM | GI50 [26]: 3.05 µM | TGI [26]: 16.4 µM | GI50 [27]: 5.55 µM | TGI [27]: 24.8 µM | GI50 [28]: 1.45 µM | TGI [28]: 5.01 µM | GI50 [55]: 4.81 µM | TGI [55]: 18.7 µM | GI50 [29]: 3.97 µM | TGI [29]: 17 µM | GI50 [56]: 2.9 µM | TGI [56]: 10.4 µM | GI50 [30]: 2.54 µM | TGI [30]: 9.97 µM | GI50 [31]: 2.13 µM | TGI [31]: 11.1 µM | GI50 [57]: 1.68 µM | TGI [57]: 3.47 µM | GI50 [32]: 1.66 µM | TGI [32]: 4.08 µM | GI50 [33]: 2.64 µM | TGI [33]: 8.72 µM | GI50 [34]: 1.82 µM | TGI [34]: 8.85 µM | GI50 [35]: 2.73 µM | TGI [35]: 10.6 µM | GI50 [36]: 1.27 µM | TGI [36]: 13.3 µM | GI50 [37]: 2.71 µM | TGI [37]: 11.7 µM | GI50 [38]: 3.19 µM | TGI [38]: 12.1 µM | GI50 [39]: 1.73 µM | TGI [39]: 14.4 µM | GI50 [40]: 2.92 µM | TGI [40]: 10.5 µM | GI50 [41]: 1.75 µM | TGI [41]: 3.65 µM | GI50 [42]: 4.58 µM | TGI [42]: 19 µM | GI50 [43]: 1.77 µM | TGI [43]: 6.06 µM | GI50 [58]: 2.47 µM | TGI [58]: 11.7 µM | GI50 [59]: 1.85 µM | TGI [59]: 5.74 µM | GI50 [44]: 2.05 µM | TGI [44]: 6.58 µM | GI50 [45]: 2.8 µM | TGI [45]: 12.7 µM | GI50 [46]: 3.55 µM | TGI [46]: 14.2 µM | GI50 [47]: 2.02 µM | TGI [47]: 4.23 µM | GI50 [48]: 5.19 µM | TGI [48]: 22.7 µM | GI50 [49]: 2.03 µM | TGI [49]: 5.58 µM | GI50 [50]: 1.53 µM | TGI [50]: 3.02 µM | GI50 [51]: 6.04 µM | TGI [51]: 20.6 µM | GI50 [52]: 1.05 µM | TGI [52]: 11.2 µM
